According to patent publication US10584159B2, “Renilla based biosensors for monitoring biomolecule localization and trafficking in cells” (The Royal Institution for the Advancement of …, priority 2014, dated 2020):
Blank lines part the entries; values can stand above or below the compound they belong to.

Key:
Type in all cases: cell-based
[1] = target: T1, hMC4R wt (Homo sapiens, UniProt P32245); assay: BRET pharmacological chaperone rescue / sequestration assay (rGFP-CAAX), hMC4R wt-RlucII; details: 10 μM, 16 h
T1 construct: expressed in transfected cells; host or cells: HEK293
Procedure: (§1) BRET assay for evaluation of PC rescue of cell surface expression and functionality (sequestration assay). In FIGS. 12A to 18E, Hek293 cells were transiently transfected using PEI as described in this section. The DNA transfected per well of a 96-well plate is as follow: in FIGS. 12A and 12B, with 2.4 ng of hMC4R-RlucII encoding construct and an increasing quantity of rGFP-CAAX (Kras) up to 9.6 ng for FIGS. 12A and for 12B, rGFP-PB up to 9.6 ng; in FIGS. 13A to 13C with 0.6, 1.2 or 2.4 ng of hMC4R-RlucII and 4.8 ng of rGFP-CAAX (Kras); in FIG. 13D with 2.4 ng of polycistronic rGFP-CAAX(Kras)/MC4R-RlucII construct; in FIG. 13E with 1.2 ng of hV2R-RlucII and 4.8 ng of rGFP-CAAX (Kras); in FIGS. 14A to 16B with 2.4 ng of hMC4R-RlucII and 7.2 ng of rGFP-CAAX (Kras); Hek293 cells stably expressing rGFP-CAAX(Kras) were transfected with 0.6, 1.2 or 2.4 ng of hMC4R-RlucII; in FIG. 17A or 0.6, 1.2 or 2.4 ng of hV2R_Y128S-RlucII; in FIG. 17B; in FIGS. 18A and 18B with 0.6, 1.2 or 2.4 ng of hERG-RlucII and 4.8 ng of rGFP-CAAX (Kras); and in FIGS. 18C-18E with 0.6 ng of hERG-RlucII and 7.2 ng of rGFP-CAAX (Kras). […] For the BRET assay, cells were washed once with PBS and left in Tyrode's buffer. […] BRET values were determined by calculating the ratio of the light emitted by the acceptor over the light emitted by the RlucII.

[2] = target: T2, hMC4R (P299H) (Homo sapiens, UniProt P32245, P299H); assay: BRET pharmacological chaperone rescue assay (rGFP-CAAX), hMC4R (P299H)-RlucII; details: 10 μM, 16 h
T2 construct: expressed in transfected cells; host or cells: HEK293
Procedure: as §1

[3] = target: T3, hMC4R (R165Q) (Homo sapiens, UniProt P32245, R165Q); assay: BRET pharmacological chaperone rescue / sequestration assay (rGFP-CAAX), hMC4R (R165Q)-RlucII; details: 10 μM, 16 h
T3 construct: expressed in transfected cells; host or cells: HEK293
Procedure: as §1

[4] = target: T4, Prostaglandin F receptor (FP) (Homo sapiens, UniProt P43088); assay: Unimolecular DAG sensor BRET, FP activation; details: FP-transfected HEK293SL, 1 min stimulation, read-out: EC50, DAG produced at the plasma membrane
T4 construct: expressed in transfected cells; host or cells: HEK293SL
Procedure: (§2) Unimolecular DAG sensor. For FIGS. 22B and C, HEK293SL cells stably expressing hAt1AR (˜50 fmol/mg) were cultured in DMEM supplemented with 10% FBS and 20 μg/ml gentamycin and seeded at a density of 75,000 cells/100 mm dishes and were transiently transfected the next day with 150 ng of construct encoding for the DAG unimolecular sensor, using calcium phosphate method as described previously. 48 h post-transfection, cells were washed and Coel-400a was added to a final concentration of 5 μM and incubated 3 min. […] Data are mean±SD of triplicates of a representative experiment. […] Data are mean±S.E. of six independent experiments. For FIGS. 22D and E, Hek293SL cells were transfected with FuGENE HD, according to Roche's protocol with a ratio of 2:1 fugene:DNA. 10 ng of construct encoding the unimolecular sensor and 400 ng for the receptor (FIGS. 22D, FP and in 2E, GPR14) complemented to 1 ug with ssDNA, were transfected per well of a 6 well plate. 48 h post-transfection, cells were washed, incubated in Tyrode's buffer for 1 h. […] For FIG. 22F, cells were transfected as in FIG. 22D but with just the unimolecular DAG sensor encoding construct. 48 h post-transfection, cells were washed, incubated in Tyrode's buffer for 1 h. […] Cells were then stimulated with 5 μM m-3m3FBS or just vehicle for the indicated time. […] 48 h post-transfection, cells were washed, incubated in Tyrode's buffer for 1 h.

[5] = test system: PLC (β2, β3, γ1, γ2, δ1 isoforms); assay: Unimolecular DAG sensor BRET, direct PLC activation; details: 5 uM
Procedure: as §2

T2 sequence (P32245 whole entry P299H): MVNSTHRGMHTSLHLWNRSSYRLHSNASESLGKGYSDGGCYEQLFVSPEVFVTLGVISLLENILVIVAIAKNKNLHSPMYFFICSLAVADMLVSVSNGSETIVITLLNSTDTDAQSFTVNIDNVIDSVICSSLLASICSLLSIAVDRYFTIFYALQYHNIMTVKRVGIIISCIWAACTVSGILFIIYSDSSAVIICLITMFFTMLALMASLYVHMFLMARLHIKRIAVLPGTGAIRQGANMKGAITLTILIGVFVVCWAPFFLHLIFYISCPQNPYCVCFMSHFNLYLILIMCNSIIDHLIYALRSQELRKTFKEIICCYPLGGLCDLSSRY
T3 sequence (P32245 whole entry R165Q): as the sequence (P32245 whole entry P299H) above, with R165Q, H299P counted along it
T1 sequence (P32245 whole entry): as the sequence (P32245 whole entry P299H) above, with H299P counted along it
T4 sequence (P43088 whole entry): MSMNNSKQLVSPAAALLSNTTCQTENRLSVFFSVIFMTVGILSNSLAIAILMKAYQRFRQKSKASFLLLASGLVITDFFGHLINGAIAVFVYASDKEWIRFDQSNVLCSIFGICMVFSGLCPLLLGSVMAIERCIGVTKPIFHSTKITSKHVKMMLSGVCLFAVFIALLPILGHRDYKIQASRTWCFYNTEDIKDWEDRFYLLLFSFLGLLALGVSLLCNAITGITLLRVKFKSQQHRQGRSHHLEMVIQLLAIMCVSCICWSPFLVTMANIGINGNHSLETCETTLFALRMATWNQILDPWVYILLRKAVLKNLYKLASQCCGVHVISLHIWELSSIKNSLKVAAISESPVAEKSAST

- PC-mediated rescue of cell surface expression [1]: increase in BRET signal
- PC-mediated rescue of cell surface expression [2]: not PC-rescued
- PC-mediated rescue of cell surface expression [3]: increase in BRET signal
SMILES: CCC(=O)N[C@H](Cc1ccc(Cl)cc1Cl)C(=O)N1CCN(c2ccccc2CNC(C)COC)CC1 (stereo partly drawn) [DCPMP, N-((2R)-3(2,4-dichloroPhenyl)-1-(4-(2-((1-methoxypropan-2-ylamino)methyl)phenyl)piperazin-1-yl)-1-oxopropan-2-yl)propionamide]

- EC50 [4]: 90 nM
SMILES: CCCCC[C@H](O)/C=C/[C@H]1[C@H](O)CC(=O)[C@@H]1C/C=C\CCCC(=O)O [PGE2, Prostaglandin E2]

SMILES: Cc1cc(C)c(S(=O)(=O)Nc2cccc(C(F)(F)F)c2)c(C)c1 [m-3m3FBS, N-(3-Trifluoromethylphenyl)-2,4,6-trimethylbenzenesulfonamide]
- BRET response of DAG sensor [5]: increase in BRET
